Converted amounts (≈) assume the structure as drawn.
Legend:
[1] = system: Candida albicans 703 clinical isolate; assay: Antifungal MIC, broth microdilution (CLSI M27-A3); settings: for MIC: Candida albicans, 24 h, read-out: MIC C. albicans 703 Clinical Isolate
in vitro = settings: dog
[2] = system: S. aureus ATCC 29213 (MSSA); assay: Antibacterial MIC, broth microdilution (EUCAST); assay type: cell-based, Staphylococcus aureus; settings: for MIC: Staphylococcus aureus
Description: (§1) Minimum inhibitory concentrations (MICs) of compounds was determined by the broth microdilution assay in 96-well plates (Eppendorf, Hamburg, Germany) according to the EUCAST rules for antimicrobial susceptibility testing in full Mueller-Hinton broth (MH). The concentrations of compounds to be tested ranged from 1 to 2048 µg/mL. The MIC was determined as the lowest concentration of an antibiotic for which no visible bacterial growth could be observed after 24 h of incubation.

[3] = system: S. aureus MRSA clinical isolate; assay: Antibacterial MIC, broth microdilution (EUCAST); assay type: cell-based, Staphylococcus aureus; settings: for MIC: Staphylococcus aureus, MRSA, 24 h, Mueller-Hinton broth
Description: as §1

[4] = system: influenza virus A/Puerto Rico/8/34 (H1N1); assay: Antiviral cell protection assay in MDCK cells; assay type: cell-based; settings: H1N1, MDCK, 72 h
[5] = Cytotoxicity, MTT on EBL cells; settings: bovine, EBL cells (embryonic bovine lung)
Description: (§3) Cytotoxicity of compounds was determined using the microtetrazolium test (MTT) on EBL cells. The cells were cultured in DMEM—Dulbecco’s Modified Eagle’s Medium (Sigma Aldrich, St. Louis, MO, USA) supplemented with 10% FBS, 2 mM L-glutamine, 100 µg/mL penicillin and 100 µg/mL streptomycin. Cells were seeded in 96-well plates with the density of 3000 cells per well and left overnight to allow for the attachment. Cells were next cultured at 37 °C and 5% CO2 in the presence of compounds of interest at various concentrations from 1.25 to 160 µg/mL. After 24 h of cultivation the cells were subjected to MTT-assay. The formazan was solubilized by DMSO and the optical density was measured on Tecan Infinite 200Pro at 570 nm. The concentration required to inhibit cellular dehydrogenase activity by 50% (CC50 value) was calculated by using GraphPad Prism 6.0 software (GraphPad software, San Diego, CA, USA).

P. aeruginosa ATCC 27853 = assay: Antibacterial MIC, broth microdilution (EUCAST); assay type: cell-based, Pseudomonas aeruginosa; settings: for MIC: Pseudomonas aeruginosa, ATCC27853, 24 h, Mueller-Hinton broth
Description: as §1

[6] = system: red blood cells from laboratory mice; assay: Erythrotoxicity (hemolytic activity); assay type: cell-based; settings: 100 μM, 1, 3 and 5 h of incubation
Description: No significant hemolytic activity was detected at a concentration of 1 μM (Figure 3B).
(§2) To evaluate the erythrotoxicity, antioxidant and membrane-protective activity of the compounds, we used 0.5% (v/v) suspension of red blood cells from laboratory mice in phosphate-buffered saline (PBS, pH 7.4). The test substances were previously dissolved in ethanol. Erythrotoxicity (hemolytic activity) was evaluated by the degree of hemolysis of red blood cells 1–5 h after the introduction of solutions of the compounds. Membrane-protective and antioxidant activity was determined by the degree of inhibition of H2O2-induced hemolysis. For this purpose, 30 min after the erythrocyte suspension was added to the solutions of the test compounds, hemolysis was initiated with a solution of hydrogen peroxide (0.006%). Then, the reaction mixture was incubated in a thermostatic shaker Biosan ES-20 with slow stirring at 37 °C for 5 h. An aliquot was taken from the incubation medium every hour, centrifuged for 5 min (1600× g), and the degree of hemolysis was determined by the hemoglobin content in the supernatant on a ThermoSpectromic Genesys 20 spectrophotometer (Thermo Fisher Scientific, Waltham, MA, USA) at 524 nm. The percentage of hemolysis was calculated in relation to the complete hemolysis of the sample. Each experiment was designed with 4–8 replicates. Statistical data processing and charting were performed using the Microsoft Office Excel 2007 software package (Microsoft, Redmond, WA, USA). The data represent the mean ± SE.
Figure 3 Hemolytic activity of unsymmetrical disulfides at the concentration of 100 μM (A) and 1 μM (B) after 1, 3 and 5 h of incubation.

[7] = system: red blood cells from laboratory mice; assay: Membrane-protective activity: H2O2-induced hemolysis of erythrocytes; assay type: cell-based; settings: 1 μM, 1–5 h
Description: The membrane-protective properties of the compounds were evaluated in the model of oxidative hemolysis of erythrocytes at a concentration of 1 μM in order to avoid the effect of hemolytic activity.
as §2
Figure 4 Effect of unsymmetrical disulfides and Trolox (T) at a concentration of 1 μM on the level of H2O2-induced hemolysis of erythrocytes after 1–5 h of incubation.

[8] = system: EBL cells (embryonic bovine lung); assay: Cytotoxicity, MTT on EBL cells
Description: as §3

Compound | MIC [1] | CC50 (in vitro) | MIC ([2]; 24 h, Mueller-Hinton broth) | MIC [3] | IC50 [4] | CC50 at 24 h [5] | MIC (P. aeruginosa ATCC 27853) | melting point | hemolytic activity (erythrotoxicity), in words [6] | membrane-protective activity, in words [7] | cytotoxicity on EBL cells, in words [8] | activity against P. aeruginosa ATCC 27853, in words (P. aeruginosa ATCC 27853) | antifungal activity against Candida albicans 703, in words [1] | MIC S. aureus ATCC 29213 (MSSA) ([2]; 24 h, Mueller-Hinton broth) | antibacterial activity against MSSA, in words [2] | antibacterial activity against MRSA, in words [3]
COC(=O)c1cccnc1SS[C@H]1C[C@H](C)CC[C@H]1C(C)C [Compound 1c, Methyl 2-(((1S,2S,5R)-2-isopropyl-5-methylcyclohexyl)disulfanyl)pyridine-3-carboxylate] | 512 µg/mL (≈ 1510 µM) | 31 ± 2 µM | 32 µg/mL (≈ 94.2 µM) | 32 µg/mL (≈ 94.2 µM) | 12 ± 2 µM | 18.3 µg/mL (≈ 53.9 µM) | 32 µg/mL (≈ 94.2 µM) | 96 °C |  |  |  |  |  |  |  | 
CC1(C)[C@H]2CC[C@@H](CSSc3nc4ccccc4s3)[C@@H]1C2 [Compound 2a, 2-((((1S,2R,5S)-6,6-dimethylbicyclo [3.1.1]heptan-2-yl)methyl)disulfaneyl)benzo[d]thiazole] | 1020 µg/mL (≈ 3050 µM) | 99 ± 5 µM | 128 µg/mL (≈ 381 µM) | 128 µg/mL (≈ 381 µM) | 13 ± 3 µM | 104 µg/mL (≈ 311 µM) | 64 µg/mL (≈ 191 µM) |  | Low hemolytic activity | most active | least toxicity | repressed the growth |  |  |  | 
Cc1cc(C)nc(SS[C@H]2C[C@H]3C[C@@H]([C@@H]2CO)C3(C)C)n1 [Compound 3b, ((1S,2R,3S,5R)-3-((4,6-dimethylpyrimidin-2-yl)disulfanyl)-6,6-dimethylbicyclo[3.1.1]heptan-2-yl)methanol] | 512 µg/mL (≈ 1580 µM) | 83 ± 4 µM | 32 µg/mL (≈ 98.6 µM) | 32 µg/mL (≈ 98.6 µM) | 16 ± 3 µM | 8.2 µg/mL (≈ 25.3 µM) | 1020 µg/mL (≈ 3160 µM) |  |  | most active |  |  |  |  |  | 
CC1(C)[C@H]2C[C@H](SSc3nc4ccccc4s3)[C@@H](CO)[C@@H]1C2 [Compound 3a, ((1S,2R,3S,5R)-3-(benzo[d]thiazol-2-yldisulfanyl)-6,6-dimethylbicyclo[3.1.1]heptan-2-yl)methanol] | 1020 µg/mL (≈ 2910 µM) | 30 ± 3 µM | 32 µg/mL (≈ 91 µM) | 32 µg/mL (≈ 91 µM) | 9 ± 3 µM | 7.1 µg/mL (≈ 20.2 µM) | 64 µg/mL (≈ 182 µM) |  |  |  |  | repressed the growth |  |  |  | 
CC1(C)[C@H]2C[C@H](SSc3ncccc3C(=O)O)[C@@H](CO)[C@@H]1C2 [Compound 3d, 2-(((1S,2R,3S,5R)-2-(hydroxymethyl)-6,6-dimethylbicyclo[3.1.1]heptan-3-yl)disulfanyl)nicotinic acid] | 32 µg/mL (≈ 94.3 µM) | 285 ± 14 µM | 512 µg/mL (≈ 1510 µM) | 1020 µg/mL (≈ 3020 µM) | 132 ± 16 µM | 118 µg/mL (≈ 347 µM) | 1020 µg/mL (≈ 3020 µM) | 99 °C | Low hemolytic activity |  | least toxicity |  | active against yeast |  |  | 
CC1(C)[C@H]2C[C@H](O)[C@@H](CSSc3nc4ccccc4s3)[C@@H]1C2 [Compound 4a, (1S,2S,3S,5R)-2-((benzo[d]thiazol-2-yldisulfanyl)methyl)-6,6-dimethylbicyclo[3.1.1]heptan-3-ol] | > 1020 µg/mL | 68 ± 6 µM | 256 µg/mL (≈ 728 µM) | > 1020 µg/mL | > 31 µM |  | 1020 µg/mL (≈ 2910 µM) |  |  | most active |  |  |  |  |  | 
CC(N)C12CC3CC(CC(C3)C1)C2 (stereo not drawn) [Rimantadine, reference compound] |  | 367 ± 28 µM |  |  | 57 ± 8 µM |  |  |  |  |  |  |  |  |  |  | 
CC1(C)[C@H]2C[C@H](O)[C@@H](CSSc3ncccc3C(=O)O)[C@@H]1C2 [Compound 4d, 2-((((1S,2S,3S,5R)-3-hydroxy-6,6-dimethylbicyclo[3.1.1]heptan-2-yl)methyl)disulfanyl)nicotinic acid] | 16 µg/mL (≈ 47.1 µM) | 178 ± 11 µM | 512 µg/mL (≈ 1510 µM) | 64 µg/mL (≈ 189 µM) | > 97 µM | 11.1 µg/mL (≈ 32.8 µM) | 1020 µg/mL (≈ 3020 µM) |  |  | most active |  |  | active against yeast |  |  | 
Cc1cc(C)nc(SSC[C@@H]2CC[C@H]3C[C@@H]2C3(C)C)n1 [Compound 2b, 2-((((1S,2R,5S)-6,6-dimethylbicyclo[3.1.1]heptan-2-yl)methyl)disulfanyl)-4,6-dimethylpyrimidine] | > 1020 µg/mL | 35 ± 3 µM | 16 µg/mL (≈ 51.9 µM) | 64 µg/mL (≈ 207 µM) | 13 ± 2 µM | 13.6 µg/mL (≈ 44.1 µM) | 32 µg/mL (≈ 104 µM) |  |  | most active |  | repressed the growth |  |  |  | 
CC(C)[C@@H]1CC[C@@H](C)C[C@@H]1SSc1ncccc1C(=O)O [Compound 1d, 2-(((1S,2S,5R)-2-isopropyl-5-methylcyclohexyl)disulfanyl)nicotinic acid] | 64 µg/mL (≈ 197 µM) | 38 ± 3 µM | 32 µg/mL (≈ 98.3 µM) | 64 µg/mL (≈ 197 µM) | > 34 µM | 47.8 µg/mL (≈ 147 µM) | 1020 µg/mL (≈ 3150 µM) | 160 to 161 °C (dec.) |  |  |  |  |  |  |  | 
CC1(C)[C@H]2CC[C@@H](CSSc3ncccc3C(=O)O)[C@@H]1C2 [Compound 2d, 2-((((1S,2R,5S)-6,6-dimethylbicyclo[3.1.1]heptan-2-yl)methyl)disulfanyl)nicotinic acid] | 128 µg/mL (≈ 396 µM) | 60 ± 4 µM | 16 µg/mL (≈ 49.5 µM) | 512 µg/mL (≈ 1580 µM) | 5 ± 1 µM | 18.1 µg/mL (≈ 56 µM) | 1020 µg/mL (≈ 3170 µM) |  |  |  |  |  |  | 32 µg/mL (≈ 98.9 µM) |  | 
NCC[C@H](O)C(=O)N[C@@H]1C[C@H](N)[C@@H](O[C@H]2O[C@H](CN)[C@@H](O)[C@H](O)[C@H]2O)[C@H](O)[C@H]1O[C@H]1O[C@H](CO)[C@@H](O)[C@H](N)[C@H]1O [Amikacin, reference compound] |  |  | 4 µg/mL (≈ 6.83 µM) | 4 µg/mL (≈ 6.83 µM) |  |  | 4 µg/mL (≈ 6.83 µM) |  |  |  |  |  |  |  |  | 
OC(Cn1cncn1)(Cn1cncn1)c1ccc(F)cc1F [Fluconazole, reference compound] | 16 µg/mL (≈ 52.2 µM) |  |  |  |  |  |  |  |  |  |  |  |  |  |  | 
COC(=O)c1cccnc1SSC[C@@H]1CC[C@H]2C[C@@H]1C2(C)C [Compound 2c, Methyl 2-((((1S,2R,5S)-6,6-dimethylbicyclo[3.1.1]heptan-2-yl)methyl)disulfaneyl)pyridine-3-carboxylate] | 1020 µg/mL (≈ 3030 µM) | 104 ± 8 µM | > 1020 µg/mL | 64 µg/mL (≈ 190 µM) | 19 ± 3 µM | 123 µg/mL (≈ 363 µM) | 1020 µg/mL (≈ 3030 µM) |  |  | most active | least toxicity |  |  |  | inactive | showing activity
Cc1cc(C)nc(SSC[C@@H]2[C@@H](O)C[C@H]3C[C@@H]2C3(C)C)n1 [Compound 4b, (1S,2S,3S,5R)-2-(((4,6-dimethylpyrimidin-2-yl)disulfanyl)methyl)-6,6-dimethylbicyclo[3.1.1]heptan-3-ol] | > 1020 µg/mL | 34 ± 2 µM | > 1020 µg/mL | > 1020 µg/mL | 12 ± 3 µM |  | > 1020 µg/mL |  |  | most active |  |  |  |  |  | 
